Patent publication US5142046A, “Optically active pyridobenzoxazine derivatives and intermediates thereof” (Daiichi Pharmaceutical Co., Ltd., priority 1985, dated 1992)
Converted amounts (≈) assume the structure as drawn.

What was measured:
Ps. aeruginosa, 32121 = test: Minimum Inhibitory Concentration (MIC), standard method of The Japan Society of Chemotherapy; conditions: Pseudomonas aeruginosa, 32121, read-out: Minimum Inhibitory Concentration (MIC)
Description: (§1) The test method was in accordance with the standard method specified by The Japan Society of Chemotherapy.

Ser. marcescens, 10100 = test: as above; conditions: Serratia marcescens, 10100, read-out: Minimum Inhibitory Concentration (MIC)
Description: as §1

E. coli, NIHJ = test: as above; conditions: Escherichia coli, read-out: Minimum Inhibitory Concentration (MIC)
Description: as §1

K. pneumoniae, Type 2 = test: as above; conditions: Klebsiella pneumoniae, TYPE2, read-out: Minimum Inhibitory Concentration (MIC)
Description: as §1

Ps. maltophilia, IID1275 = test: as above; conditions: Stenotrophomonas maltophilia, IID1275, read-out: Minimum Inhibitory Concentration (MIC)
Description: as §1

Ps. aeruginosa, 32104 = test: as above; conditions: Pseudomonas aeruginosa, 32104, read-out: Minimum Inhibitory Concentration (MIC)
Description: as §1

in vivo = conditions: mouse, iv
S. aureaus, Smith = test: Minimum Inhibitory Concentration (MIC), standard method of The Japan Society of Chemotherapy; conditions: read-out: Minimum Inhibitory Concentration (MIC)
Description: as §1

male mice = test: acute intravenous toxicity in male mice; conditions: for Day after treatment 1 (number of mice dead) / Day after treatment 2 (number of mice dead) / Day after treatment 3 (number of mice dead) / Mortality: i.v.; for Day after treatment 1 (number of mice dead) / Day after treatment 2 (number of mice dead) / Day after treatment 3 (number of mice dead): 5 male mice; for Day after treatment 1 (number of mice dead): day 1; for Day after treatment 2 (number of mice dead): day 2; for Day after treatment 3 (number of mice dead): day 3; for Mortality: male mice; for acute toxicity (LD50) compared with racemate, in words: mice, intravenous, relative to (±)-compound
S. aureaus, 209P = test: Minimum Inhibitory Concentration (MIC), standard method of The Japan Society of Chemotherapy; conditions: read-out: Minimum Inhibitory Concentration (MIC)
Description: as §1

Str. pyogenes, G-36 = test: as above; conditions: Streptococcus pyogenes, G36, read-out: Minimum Inhibitory Concentration (MIC)
Description: as §1

various microorganisms = test: antimicrobial activity compared with racemic Ofloxacin (summary); assay type: cell-based; conditions: relative to (±)-compound

With `CC1COc2c(N3CCN(C)CC3)c(F)cc3c(=O)c(C(=O)O)cn1c23` (racemic) [Racemic Ofloxacin, (±)-9-fluoro-3-methyl-10-(4-methyl-1-piperazinyl)-7-oxo-2,3-dihydro-7H-pyrido[1,2,3-de][1,4]-benzoxazine-6-carboxylic acid, reference compound] the MIC (Ps. aeruginosa, 32121) was 0.2 µg/mL (≈ 0.553 µM), the MIC (Ser. marcescens, 10100) was 0.1 µg/mL (≈ 0.277 µM) and the MIC (E. coli, NIHJ) was < 0.1 µg/mL. The MIC (K. pneumoniae, Type 2) was 0.1 µg/mL (≈ 0.277 µM), the MIC (Ps. maltophilia, IID1275) was 0.78 µg/mL (≈ 2.16 µM) and the MIC (Ps. aeruginosa, 32104) was 0.78 µg/mL (≈ 2.16 µM). The LD50 (in vivo) was 203 mg/kg, the MIC (S. aureaus, Smith) was 0.2 µg/mL (≈ 0.553 µM) and the “Day after treatment 1 (number of mice dead)” value (male mice; 100 mg/kg) was 0. The “Day after treatment 2 (number of mice dead)” value (male mice; 100 mg/kg) was 0, the “Day after treatment 3 (number of mice dead)” value (male mice; 100 mg/kg) was 0 and the Mortality (male mice; 100 mg/kg) was 0/5. For the same compound, the “Day after treatment 1 (number of mice dead)” value (male mice; 200 mg/kg) was 2, the “Day after treatment 2 (number of mice dead)” value (male mice; 200 mg/kg) was 0 and the “Day after treatment 3 (number of mice dead)” value (male mice; 200 mg/kg) was 0. The Mortality (male mice; 200 mg/kg) was 2/5, the “Day after treatment 1 (number of mice dead)” value (male mice; 400 mg/kg) was 5 and the “Day after treatment 2 (number of mice dead)” value (male mice; 400 mg/kg) was 0. The “Day after treatment 3 (number of mice dead)” value (male mice; 400 mg/kg) was 0, the Mortality (male mice; 400 mg/kg) was 5/5 and the MIC (S. aureaus, 209P) was 0.39 µg/mL (≈ 1.08 µM). It also gave an MIC (Str. pyogenes, G-36) of 1.56 µg/mL (≈ 4.32 µM).
With `CCN1CCN(c2c(F)cc3c(=O)c(C(=O)O)cn4c3c2OC[C@@H]4C)CC1` [Example 17, (S)-(-)-9-Fluoro-3-Methyl-10-(4-Ethyl-1-Piperazinyl)-7-Oxo-2,3-Dihydro-7H-Pyrido[1,2,3-de][1,4]Benzoxazine-6-Carboxylic Acid] the MIC (Ps. aeruginosa, 32121) was 0.1 µg/mL (≈ 0.266 µM), the MIC (Ser. marcescens, 10100) was < 0.1 µg/mL and the MIC (E. coli, NIHJ) was < 0.1 µg/mL. The MIC (K. pneumoniae, Type 2) was < 0.1 µg/mL, the MIC (Ps. maltophilia, IID1275) was 0.1 µg/mL (≈ 0.266 µM) and the MIC (Ps. aeruginosa, 32104) was 0.39 µg/mL (≈ 1.04 µM). For the same compound, the MIC (S. aureaus, Smith) was < 0.1 µg/mL, the MIC (S. aureaus, 209P) was 0.1 µg/mL (≈ 0.266 µM) and the MIC (Str. pyogenes, G-36) was 1.56 µg/mL (≈ 4.16 µM).
In the case of `C[C@@H]1COc2c(N3CCN(C)CC3)c(F)cc3c(=O)c(C(=O)O)cn1c23` [R(+)-Ofloxacin], the MIC (Ps. aeruginosa, 32121) is reported as 6.25 µg/mL (≈ 17.3 µM), the MIC (Ser. marcescens, 10100) is reported as 1.56 µg/mL (≈ 4.32 µM) and the MIC (E. coli, NIHJ) is reported as 0.39 µg/mL (≈ 1.08 µM). The MIC (K. pneumoniae, Type 2) was 1.56 µg/mL (≈ 4.32 µM), the MIC (Ps. maltophilia, IID1275) was 12.5 µg/mL (≈ 34.6 µM) and the MIC (Ps. aeruginosa, 32104) was 12.5 µg/mL (≈ 34.6 µM). The MIC (S. aureaus, Smith) was 6.25 µg/mL (≈ 17.3 µM), the “Day after treatment 1 (number of mice dead)” value (male mice; 100 mg/kg) was 0 and the “Day after treatment 2 (number of mice dead)” value (male mice; 100 mg/kg) was 0. The “Day after treatment 3 (number of mice dead)” value (male mice; 100 mg/kg) was 0, the Mortality (male mice; 100 mg/kg) was 0/5 and the “Day after treatment 1 (number of mice dead)” value (male mice; 200 mg/kg) was 3. For the same compound, the “Day after treatment 2 (number of mice dead)” value (male mice; 200 mg/kg) was 0, the “Day after treatment 3 (number of mice dead)” value (male mice; 200 mg/kg) was 0 and the Mortality (male mice; 200 mg/kg) was 3/5. The “Day after treatment 1 (number of mice dead)” value (male mice; 400 mg/kg) was 5, the “Day after treatment 2 (number of mice dead)” value (male mice; 400 mg/kg) was 0 and the “Day after treatment 3 (number of mice dead)” value (male mice; 400 mg/kg) was 0. The Mortality (male mice; 400 mg/kg) was 5/5, the “acute toxicity (LD50) compared with racemate, in words” value (male mice) was “substantially equal to that of the (±)-compound” and the MIC (S. aureaus, 209P) was 25 µg/mL (≈ 69.2 µM). The MIC (Str. pyogenes, G-36) was < 100 µg/mL.
In the case of `C[C@H]1COc2c(N3CCN(C)CC3)c(F)cc3c(=O)c(C(=O)O)cn1c23` [S(-)-Ofloxacin, S-(-)-9-Fluoro-3-Methyl-10-(4-Methyl-1-Piperazinyl)-7-oxo-2,3-Dihydro-7H-Pyrido[1,2,3-de][1,4]Benzoxazine-6-Carboxylic Acid], the MIC (Ps. aeruginosa, 32121) is reported as 0.1 µg/mL (≈ 0.277 µM), the MIC (Ser. marcescens, 10100) is reported as < 0.1 µg/mL and the MIC (E. coli, NIHJ) is reported as < 0.1 µg/mL. For the same compound, the MIC (K. pneumoniae, Type 2) was < 0.1 µg/mL, the MIC (Ps. maltophilia, IID1275) was 0.39 µg/mL (≈ 1.08 µM) and the MIC (Ps. aeruginosa, 32104) was 0.39 µg/mL (≈ 1.08 µM). For the same compound, the MIC (S. aureaus, Smith) was 0.1 µg/mL (≈ 0.277 µM), the LD50 (male mice; i.v. in mice) was 244 mg/kg and the “Day after treatment 1 (number of mice dead)” value (male mice; 100 mg/kg) was 0. The “Day after treatment 2 (number of mice dead)” value (male mice; 100 mg/kg) was 0, the “Day after treatment 3 (number of mice dead)” value (male mice; 100 mg/kg) was 0 and the Mortality (male mice; 100 mg/kg) was 0/5. For the same compound, the “Day after treatment 1 (number of mice dead)” value (male mice; 200 mg/kg) was 0, the “Day after treatment 2 (number of mice dead)” value (male mice; 200 mg/kg) was 0 and the “Day after treatment 3 (number of mice dead)” value (male mice; 200 mg/kg) was 0. For the same compound, the Mortality (male mice; 200 mg/kg) was 0/5, the “Day after treatment 1 (number of mice dead)” value (male mice; 400 mg/kg) was 5 and the “Day after treatment 2 (number of mice dead)” value (male mice; 400 mg/kg) was 0. The “Day after treatment 3 (number of mice dead)” value (male mice; 400 mg/kg) was 0, the Mortality (male mice; 400 mg/kg) was 5/5 and the “acute toxicity (LD50) compared with racemate, in words” value (male mice) was “weaker”. For the same compound, the MIC (S. aureaus, 209P) was 0.2 µg/mL (≈ 0.553 µM), the MIC (Str. pyogenes, G-36) was 0.78 µg/mL (≈ 2.16 µM) and the “antimicrobial activity, times higher than that of the (±)-compound” value (various microorganisms) was “about 2 times”.
